According to US10093629B2, “Heterocyclic compounds and their use as retinoid-related orphan receptor (ROR) gamma-T inhibitors” (Takeda Pharmaceutical Company Limited, priority 2014, dated 2018):

What was measured:
[1] = test system: IL-17 production in human blood; test: Effect on IL-17 production in human blood; format: cell-based; conditions: 72 h; 10 μM test compound; human peripheral blood, IL-23 and Dynabeads stimulation, 3 days; read-out: percent inhibition at 10 μM (IL-17 production)
Method: Effect on IL-17 Production in Human Blood
The inhibitory effect of the test compound on IL-17 production in human blood was evaluated as follows. First, 150 μL of peripheral blood collected from healthy individuals using heparinized vacuum blood collection tubes was dispensed into each well of a 96-well plate (Corning), and 45 μL of RPMI 1640 medium (Gibco) containing 10% fetal bovine serum (FBS, Hyclone) and 30 μL of the test compound diluted with the medium were added to each well. The plate was then cultured for 30 min at 37° C. The cells were subsequently stimulated by adding 30 μL of 100 ng/mL human IL-23 (R&D) and 45 μL of Dynabeads Human (Invitrogen) to each well and culturing the plate for 3 days at 37° C. In wells without stimulation, 75 μL of RPMI 1640 medium containing 10% FBS was added instead of the IL-23 and Dynabeads solution. After culturing for 3 days, the culture supernatant was collected, and the amount of IL-17 in the supernatant was measured using an IL-17 ELISA kit (R&D).
The results (percent inhibition of IL-17 production with 10 μM of the test compound) measured by the above-mentioned method are shown in Table 8.

RORγt [2] = molecular target: T1, RORγt (Homo sapiens, UniProt P51449); test: RORγt binding test using fluorescent-labeled synthetic ligand (TR-FRET); conditions: read-out: binding inhibitory rate of fluorescent-labeled synthetic ligand to RORγt at test compound 1 μM
T1 sequence (P51449 1-497 isoform P51449-2): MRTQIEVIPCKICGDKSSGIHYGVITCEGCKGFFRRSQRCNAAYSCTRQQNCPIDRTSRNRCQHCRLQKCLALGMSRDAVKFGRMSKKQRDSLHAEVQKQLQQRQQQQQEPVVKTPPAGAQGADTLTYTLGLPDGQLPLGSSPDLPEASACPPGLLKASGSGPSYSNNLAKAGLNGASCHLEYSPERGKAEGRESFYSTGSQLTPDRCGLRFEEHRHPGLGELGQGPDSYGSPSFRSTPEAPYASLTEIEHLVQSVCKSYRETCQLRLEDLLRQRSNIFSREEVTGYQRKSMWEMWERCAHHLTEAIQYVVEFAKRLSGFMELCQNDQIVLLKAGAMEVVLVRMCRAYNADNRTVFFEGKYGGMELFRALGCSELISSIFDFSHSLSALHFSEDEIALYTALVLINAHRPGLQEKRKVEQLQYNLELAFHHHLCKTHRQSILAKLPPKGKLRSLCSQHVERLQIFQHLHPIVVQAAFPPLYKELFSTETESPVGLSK
Method: RORγt Binding Test using Fluorescent-Labeled Synthetic Ligand
The binding activity of the test compound to RORγt was measured by a time resolved fluorescence resonance energy transfer method (TR-FRET) utilizing histidine-tagged RORγt, fluorescent-labeled synthetic ligand and terbium-labeled anti-histidine tag antibody (Invitrogen). First, a test compound diluted with an assay buffer (20 mM Tris-HCl (pH 7.5), 100 mM NaCl, 1 mM DTT, 0.1% BSA) was added to a 384 well plate by 3 μL. Then, RORγt diluted with an assay buffer to 240 nM was added by 3 μL, after which fluorescent-labeled synthetic ligand diluted with the assay buffer to 12 μM was added by 3 μL, and the mixture was stood at room temperature for 20 min. Thereafter, a terbium-labeled anti-histidine tag antibody diluted with the assay buffer to 8 nM was added by 3 μL. The mixture was stood at room temperature for 20 min, and fluorescence intensity (excitation wavelength 320 nm, fluorescence wavelength 520 nm, delay time 100 microseconds) was measured by Envision (PerkinElmer).

RORγt [3] = molecular target: T1, RORγt; test: Jurkat reporter test (human IL-17 ROR response element luciferase, RORγt vector); format: cell-based; conditions: test compound 3 μM; Jurkat cells; read-out: luminescence level inhibitory rate at test compound 3 μM
Method: The Jurkat cells used for the reporter test were cultured in a culture medium (RPMI (Invitrogen), 10% FCS (AusGeneX), 100 U/mL penicillin, 100 μg/mL streptomycin). On the day of the test, 4×10^7 cells were recovered by a centrifugal operation (1000 rpm, 5 min.) and suspended in PBS (phosphate buffered saline) (Invitrogen). Thereafter, the cells were recovered again by a centrifugal operation, and suspended in 2 mL of R buffer (NEON transfection kit, Invitrogen). […] Gene transfer was performed by Electroporation apparatus (NEON, Invitrogen) under the conditions of pulse voltage 1350 V, interval 10 milliseconds, number of times 3. The cells after gene transfer were suspended in 40 mL of a reaction medium (RPMI, 10% Lipid reduced FCS (HyClone), 10 mM HEPES (pH 7.5), 100 U/mL penicillin, 100 μg/mL streptomycin, 5 μM lovastatin), and plated in a 96 well plate by 90 μL. A test compound diluted with the reaction medium was added by 10 μL, and the cells were cultured overnight in an incubator. Bright-Glo (Promega) was added by 100 μL, and the mixture was stirred at room temperature for 10 min, and the luminescence level was measured by Envision (PerkinElmer).

RORγt [4] = molecular target: T1, RORγt; test: Cofactor recruitment test (Alpha Screen, biotinylated SRC-1 peptide); format: biochemical; conditions: read-out: signal value inhibitory rate at test compound 1 μM
Method: Cofactor Recruitment Test
Cofactor recruitment test was performed by Alpha Screen (Histidine Detection Kit, PerkinElmer) method. First, a test compound was diluted with an assay buffer (50 mM Tris-HCl (pH 7.5), 50 mM KCl, 1 mM DTT, 0.1% BSA) and added to a 384 well plate by 5 μL. […] The mixture was stood in a dark place for 1 hr, and the signal value was measured by Envision (PerkinElmer).

IL-17A gene expression = test: Effect on IL-23-induced cytokine expression in mice; format: in vivo, mouse; conditions: 10 mg/kg oral, 30 min before and 8 hr after IL-23; ear of Balb/c mice; versus the negative control group
Method: Effect on IL-23-Induced Cytokine Expression in Mice
A mouse IL-23 solution (500 ng/10 μL, prepared by Takeda Pharmaceutical Company Limited) or PBS (10 μL, negative control group) was administered intradermally in the ear of Balb/c mice (Charles River Japan, male, 7 weeks old). Twenty-four hr after administration, the ear was resected under isoflurane anesthesia. The test compound was suspended in 0.5% methylcellulose and administered orally 30 min before and 8 hr after IL-23 administration.
RNA extraction from the ear tissue and quantitative PCR were performed as follows. Specifically, ear tissue 5 mm in diameter was punched from an area of the resected ear centering on the IL-23 injection site, and the tissue was immersed in RNAlater (QIAGEN) for at least 18 hr. The RNAlater-treated ear tissue was homogenized in 350 μL of RLT buffer (RNeasy mini kit, QIAGEN) and treated (55° C., 10 min) with Proteinase K (QIAGEN). Total RNA was then extracted according to the RNeasy mini kit protocol. The RNA thus obtained was then reverse transcribed into cDNA using the High-Capacity RNA-to-cDNA kit (Applied Biosystems), and the amount of each gene expressions was measured by real-time PCR (Viia7™, Applied Biosystems). The PCR buffer used was TaqMan Fast Advanced Master Mix (Applied Biosystems), and TaqMan Gene Expression Assays (Applied Biosystems) Mm00439618_m1 (IL-17A) and 4352341E (β-actin) were used for each gene detection. The IL-17A gene expression level was normalized to the β-actin gene expression level, and the percent inhibition of IL-17A gene expression with the test compound was then calculated.
The results (percent inhibition of IL-17A gene expression with oral administration of the test compound) measured by the above-mentioned method are shown in Table 9.

| SMILES | inhibition at 10 µM [1] | inhibition at 1 µM (RORγt [2]) | inhibition at 3 µM (RORγt [3]) | inhibition at 1 µM (RORγt [4]) | percent inhibition of IL-17A gene expression (IL-17A gene expression) |
| --- | --- | --- | --- | --- | --- |
| COc1ccc2c(c1)CCN(C(=O)[C@H]1C[C@@H]1CC(=O)O)[C@H]2C(=O)Nc1cc(F)c([Si](C)(C)C)c(F)c1 [Example 29, ((1R,2S)-2-(((1R)-1-((3,5-difluoro-4-(trimethylsilyl)phenyl)carbamoyl)-6-methoxy-3,4-dihydroisoquinolin-2(1H)-yl)carbonyl)cyclopropyl)acetic acid] | 74.9% | 102% | 102% | 91% | 73% |
| COc1ccc2c(n1)CCN(C(=O)[C@H]1C[C@@H](CC(=O)O)C1)[C@H]2C(=O)Nc1cc(F)c([Si](C)(C)C)c(F)c1 [Example 23, (cis-3-(((5R)-5-((3,5-difluoro-4-(trimethylsilyl)phenyl)carbamoyl)-2-methoxy-7,8-dihydro-1,6-naphthyridin-6(5H)-yl)carbonyl)cyclobutyl)acetic acid] | 85.9% | 102% | 101% | 87% | 96% |
| COc1ccc2c(n1)CCN(C(=O)[C@H]1C[C@H](CC(=O)O)C1)[C@H]2C(=O)Nc1cc(F)c([Si](C)(C)C)c(F)c1 [Example 28, (trans-3-(((5R)-5-((3,5-difluoro-4-(trimethylsilyl)phenyl)carbamoyl)-2-methoxy-7,8-dihydro-1,6-naphthyridin-6(5H)-yl)carbonyl)cyclobutyl)acetic acid] | 89.1% | 102% | 101% | 87% | 91% |
| COc1ccc2c(c1)CCN(C(=O)C1CC(CC(=O)O)C1)[C@H]2C(=O)Nc1cc(F)c([Si](C)(C)C)c(F)c1 (stereo partly drawn) [Example 4, (3-(((1R)-1-((3,5-difluoro-4-(trimethylsilyl)phenyl)carbamoyl)-6-methoxy-3,4-dihydroisoquinolin-2(1H)-yl)carbonyl)cyclobutyl)acetic acid] | 88.3% | 102% | 100% | 94% | 86% |
| COc1ccc2c(c1)CCN(C(=O)[C@H]1C[C@@H](CC(=O)O)C1)[C@H]2C(=O)Nc1ccc([Si](C)(C)C)c(F)c1 [Example 33, (cis-3-(((1R)-1-((3-fluoro-4-(trimethylsilyl)phenyl)carbamoyl)-6-methoxy-3,4-dihydroisoquinolin-2(1H)-yl)carbonyl)cyclobutyl)acetic acid] | 78.5% | 102% | 102% | 92% | 94% |
| COc1ccc2c(c1)CCN(C(=O)[C@H]1C[C@@H](C(=O)O)C1)[C@H]2C(=O)Nc1cc(F)c([Si](C)(C)C)c(F)c1 [Example 5, cis-3-(((1R)-1-((3,5-difluoro-4-(trimethylsilyl)phenyl)carbamoyl)-6-methoxy-3,4-dihydroisoquinolin-2(1H)-yl)carbonyl)cyclobutanecarboxylic acid] | 88.6% | 102% | 100% | 93% | 57% |
| COc1ccc2c(n1)CCN(C(=O)[C@H]1C[C@@H](C(=O)O)C1)[C@H]2C(=O)Nc1cc(F)c([Si](C)(C)C)c(F)c1 [Example 31, cis-3-(((5R)-5-((3,5-difluoro-4-(trimethylsilyl)phenyl)carbamoyl)-2-methoxy-7,8-dihydro-1,6-naphthyridin-6(5H)-yl)carbonyl)cyclobutanecarboxylic acid] | 89.8% | 102% | 102% | 86% | 85% |
